# Measurements from ChEMBL document CHEMBL1201862, “PubChem BioAssay data set” (2004).
# Calls of active or inactive are those of the source.
# Tests used:
# [1] = viability loss in THP-1 monocytes – THP-1 cells, cytotoxicity control for Vif-APOBEC3G degradation inhibitor project, dose response (AID 1117359); type: functional; details: THP-1
# Genome polyprotein = Genome polyprotein (dengue virus type 2, UniProt P29990); experiment: flavivirus cap methylation enzyme inhibition – biochemical, confirmation dose response, primary screen (AID 588689); type: functional
# Cysteine protease ATG4B = target: T1, Cysteine protease ATG4B (Homo sapiens, UniProt Q9Y4P1); type: functional;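 note: Fluorescence-based dose-response confirmation assay measuring inhibition of ATG4B activity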
# T1 sequence (Q9Y4P1 whole entry): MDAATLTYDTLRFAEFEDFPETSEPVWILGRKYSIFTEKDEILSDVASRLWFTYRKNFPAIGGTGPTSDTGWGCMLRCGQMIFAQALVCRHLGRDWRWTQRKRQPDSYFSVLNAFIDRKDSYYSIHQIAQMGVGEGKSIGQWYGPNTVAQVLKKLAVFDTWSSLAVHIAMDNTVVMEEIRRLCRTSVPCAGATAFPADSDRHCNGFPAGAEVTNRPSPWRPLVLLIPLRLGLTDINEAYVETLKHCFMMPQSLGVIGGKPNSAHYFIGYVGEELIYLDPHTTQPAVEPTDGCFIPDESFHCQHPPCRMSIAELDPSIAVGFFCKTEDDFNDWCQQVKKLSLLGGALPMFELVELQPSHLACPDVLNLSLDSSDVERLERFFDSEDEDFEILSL
# Phospholipase A2 = Phospholipase A2 (Homo sapiens, UniProt P04054); type: functional;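 note: confirmatory dose-response counterscreen on phospholipase A2, testing hits that came from an ultra-high-throughput screen for ATG4B inhibitors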
# [2] = target: Peroxisome proliferator-activated receptor gamma/Nuclear receptor coactivator 2 (Homo sapiens, UniProt P37231); type: functional;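 note: agonist potency for raising coactivator recruitment to the receptor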
# [3] = target: Peroxisome proliferator-activated receptor gamma/Nuclear receptor coactivator 1 (Homo sapiens, UniProt P37231); type: functional;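 note: agonist potency as compounds enhance coactivator SRC-1 recruitment to PPARgamma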
# [4] = target: Peroxisome proliferator-activated receptor gamma/Nuclear receptor coactivator 3 (Homo sapiens, UniProt P37231); type: functional;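 note: agonist potency for raising coactivator recruitment to the receptor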
# [5] = target: T2, Heat shock factor protein 1 (Mus musculus, UniProt P38532); experiment: decrease of HSF1-responsive luciferase luminescence – cell-based, NIH3T3, dose retest, confirmation (AID 2382); type: functional;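 note: NIH3T3 fibroblasts with HSF1-driven luciferase reporter stressed by proteasome inhibitor MG132; luminescence from HSF1-driven luciferase expression after 8 hours of MG132 stress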
# T2 sequence (P38532 whole entry): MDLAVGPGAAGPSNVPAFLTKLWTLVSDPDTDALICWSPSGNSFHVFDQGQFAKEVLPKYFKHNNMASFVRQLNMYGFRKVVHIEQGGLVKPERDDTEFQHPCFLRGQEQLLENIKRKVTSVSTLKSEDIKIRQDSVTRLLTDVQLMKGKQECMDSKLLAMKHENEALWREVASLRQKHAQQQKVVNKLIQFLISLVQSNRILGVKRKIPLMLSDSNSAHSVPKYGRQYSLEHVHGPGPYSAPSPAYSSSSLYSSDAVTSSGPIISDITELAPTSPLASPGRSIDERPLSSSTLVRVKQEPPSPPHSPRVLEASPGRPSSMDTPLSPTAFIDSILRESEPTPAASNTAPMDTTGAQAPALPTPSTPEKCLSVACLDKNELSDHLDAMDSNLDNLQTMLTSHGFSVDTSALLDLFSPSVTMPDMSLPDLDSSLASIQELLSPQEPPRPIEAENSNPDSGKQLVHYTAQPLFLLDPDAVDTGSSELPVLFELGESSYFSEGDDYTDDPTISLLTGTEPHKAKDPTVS
# [6] = target: Heat shock protein HSP 90-alpha (Homo sapiens, UniProt P07900); type: functional, organism-based
# [7] = Luminescence Cell-Based Dose Retest to Confirm Inhibitors of Cancer Stem Cells. [Related pubchem assays (depositor defined):AID2717, AID2721]; type: functional; details: Homo sapiens
# [8] = Trypanosoma cruzi growth suppression in host cells – NIH3T3 host cells, beta-gal luminescence, confirmation (AID 2044); type: functional, cell-based;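 note: intracellular parasites grown in NIH/3T3 mouse fibroblasts as host cells; luminescent beta-galactosidase reporter signal from transgenic T. cruzi replicating inside host cells; inhibitors lower the luminescence signal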
# [9] = NIH3T3 cell viability loss – ATP luminescence, mouse fibroblasts, counter-screen, dose response (AID 2010); type: functional, cell-based;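 note: cells exposed to compound for about 90 hours before reading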
# P388 = experiment: cells; type: functional; details: Mus musculus
# P388/ADR = experiment: cells; type: functional; details: Mus musculus
# SN12K1 = experiment: cells; type: functional; details: Homo sapiens
# HEK293 [10] = experiment: cells; type: functional, cell-based; details: Homo sapiens
# HEK293 [11] = experiment: cells; type: functional, cell-based; details: Homo sapiens; remark: listed apart in the source
# HEK293 [12] = experiment: inhibition of NOD1-driven NF-kB reporter – cell-based, luminescence, uHTS, primary screen (AID 1578); type: functional; details: Homo sapiens
# HEK293 [13] = experiment: NOD2 signaling inhibitors in MDP-stimulated cells, cell-based, uHTS, luminescence (AID 2001); type: functional; details: Homo sapiens
# [14] = target: T3, Replicative DNA helicase DnaB (Mycobacterium tuberculosis, UniProt P9WMR3); experiment: DnaB intein splicing inhibitors, dose response, biochemical, cell-free fluorescence (AID 449749); type: functional
# T3 sequence (P9WMR3 whole entry): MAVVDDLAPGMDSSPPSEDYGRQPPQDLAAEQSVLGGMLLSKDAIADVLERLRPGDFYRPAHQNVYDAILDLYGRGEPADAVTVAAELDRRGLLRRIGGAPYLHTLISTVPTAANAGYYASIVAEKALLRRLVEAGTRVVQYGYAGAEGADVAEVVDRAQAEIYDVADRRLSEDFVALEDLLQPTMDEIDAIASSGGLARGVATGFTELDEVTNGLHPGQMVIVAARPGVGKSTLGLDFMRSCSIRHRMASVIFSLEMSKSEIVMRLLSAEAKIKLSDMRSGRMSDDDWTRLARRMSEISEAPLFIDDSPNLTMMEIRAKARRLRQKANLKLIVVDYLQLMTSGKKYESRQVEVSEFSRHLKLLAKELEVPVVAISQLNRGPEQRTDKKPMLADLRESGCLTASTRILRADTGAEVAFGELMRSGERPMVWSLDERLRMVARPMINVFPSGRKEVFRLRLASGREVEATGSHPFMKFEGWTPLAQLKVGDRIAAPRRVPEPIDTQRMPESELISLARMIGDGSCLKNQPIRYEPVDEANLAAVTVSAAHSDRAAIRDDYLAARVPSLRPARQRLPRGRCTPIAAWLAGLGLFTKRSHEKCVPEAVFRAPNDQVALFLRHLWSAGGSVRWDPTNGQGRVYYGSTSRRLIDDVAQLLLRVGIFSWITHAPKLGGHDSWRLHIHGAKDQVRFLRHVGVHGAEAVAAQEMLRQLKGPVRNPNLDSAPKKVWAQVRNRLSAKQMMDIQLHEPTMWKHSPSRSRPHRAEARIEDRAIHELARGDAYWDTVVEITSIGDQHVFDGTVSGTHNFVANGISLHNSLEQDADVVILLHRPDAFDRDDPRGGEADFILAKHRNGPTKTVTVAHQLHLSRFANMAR
# Protein RecA = target: T4, Protein RecA (Mycobacterium tuberculosis, UniProt P9WHJ3); experiment: Fluorescence Cell-Free Homogeneous Dose Retest to Identify Inhibitors of RecA-Intein Splicing Activity. [Related pubchem assays (depositor defined):AID2097, AID2223, AID489010, AID492950]; type: functional
# T4 sequence (P9WHJ3 whole entry): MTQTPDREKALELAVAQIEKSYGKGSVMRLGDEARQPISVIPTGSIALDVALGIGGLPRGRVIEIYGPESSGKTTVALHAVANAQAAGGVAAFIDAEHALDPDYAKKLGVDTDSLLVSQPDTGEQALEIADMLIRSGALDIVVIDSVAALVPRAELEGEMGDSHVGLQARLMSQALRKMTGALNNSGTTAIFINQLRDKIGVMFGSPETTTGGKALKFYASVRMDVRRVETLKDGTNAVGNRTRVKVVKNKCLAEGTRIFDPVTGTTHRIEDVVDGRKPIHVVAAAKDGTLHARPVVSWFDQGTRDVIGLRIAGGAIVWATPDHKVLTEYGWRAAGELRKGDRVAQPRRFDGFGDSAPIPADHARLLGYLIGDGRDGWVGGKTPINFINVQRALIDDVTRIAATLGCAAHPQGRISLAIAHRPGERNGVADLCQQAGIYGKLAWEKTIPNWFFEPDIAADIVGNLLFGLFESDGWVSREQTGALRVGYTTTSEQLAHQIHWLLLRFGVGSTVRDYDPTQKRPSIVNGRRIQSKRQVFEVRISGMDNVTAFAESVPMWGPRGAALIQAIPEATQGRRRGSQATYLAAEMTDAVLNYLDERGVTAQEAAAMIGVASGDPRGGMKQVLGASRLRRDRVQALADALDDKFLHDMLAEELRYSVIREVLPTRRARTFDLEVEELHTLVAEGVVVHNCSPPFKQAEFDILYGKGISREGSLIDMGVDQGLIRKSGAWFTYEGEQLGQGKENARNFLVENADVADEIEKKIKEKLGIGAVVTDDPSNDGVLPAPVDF
# Paired box protein Pax-8 = Paired box protein Pax-8 (Homo sapiens, UniProt Q06710); experiment: PAX8 transcriptional activity inhibition in RMG-I – RMG-I cells, luciferase, cherry-pick, dose response (AID 687027); type: functional, cell-based;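 note: luciferase reporter driven by Pax8 target thyroperoxidase promoter measured by SteadyGlo luminescence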
# [15] = OVCAR8 cell viability loss – plate reader, dry powder samples, PAX8 project, dose response (AID 743197); type: functional, cell-based; details: OVCAR-8
# Chain of Phospholipase A2 (P04054 whole entry): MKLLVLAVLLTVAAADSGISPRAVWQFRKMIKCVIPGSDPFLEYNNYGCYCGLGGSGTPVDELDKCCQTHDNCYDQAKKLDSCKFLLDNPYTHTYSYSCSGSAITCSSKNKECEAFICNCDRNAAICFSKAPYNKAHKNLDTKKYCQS
# Chain of Peroxisome proliferator-activated receptor gamma/Nuclear receptor coactivator 3 (P37231 whole entry): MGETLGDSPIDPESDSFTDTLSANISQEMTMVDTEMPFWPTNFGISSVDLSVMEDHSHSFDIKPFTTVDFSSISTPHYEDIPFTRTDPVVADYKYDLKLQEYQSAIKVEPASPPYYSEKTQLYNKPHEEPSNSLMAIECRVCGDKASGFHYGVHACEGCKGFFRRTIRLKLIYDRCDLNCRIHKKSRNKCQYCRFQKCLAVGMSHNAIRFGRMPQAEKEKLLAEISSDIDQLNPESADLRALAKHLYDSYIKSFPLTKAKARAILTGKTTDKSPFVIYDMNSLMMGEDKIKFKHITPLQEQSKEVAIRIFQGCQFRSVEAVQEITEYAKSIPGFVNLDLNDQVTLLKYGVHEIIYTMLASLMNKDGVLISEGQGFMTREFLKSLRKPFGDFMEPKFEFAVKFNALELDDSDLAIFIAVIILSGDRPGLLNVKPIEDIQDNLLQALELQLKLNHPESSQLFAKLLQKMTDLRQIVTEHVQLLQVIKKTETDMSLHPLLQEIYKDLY
# Chain of Peroxisome proliferator-activated receptor gamma/Nuclear receptor coactivator 3 (Q9Y6Q9 whole entry, further chain): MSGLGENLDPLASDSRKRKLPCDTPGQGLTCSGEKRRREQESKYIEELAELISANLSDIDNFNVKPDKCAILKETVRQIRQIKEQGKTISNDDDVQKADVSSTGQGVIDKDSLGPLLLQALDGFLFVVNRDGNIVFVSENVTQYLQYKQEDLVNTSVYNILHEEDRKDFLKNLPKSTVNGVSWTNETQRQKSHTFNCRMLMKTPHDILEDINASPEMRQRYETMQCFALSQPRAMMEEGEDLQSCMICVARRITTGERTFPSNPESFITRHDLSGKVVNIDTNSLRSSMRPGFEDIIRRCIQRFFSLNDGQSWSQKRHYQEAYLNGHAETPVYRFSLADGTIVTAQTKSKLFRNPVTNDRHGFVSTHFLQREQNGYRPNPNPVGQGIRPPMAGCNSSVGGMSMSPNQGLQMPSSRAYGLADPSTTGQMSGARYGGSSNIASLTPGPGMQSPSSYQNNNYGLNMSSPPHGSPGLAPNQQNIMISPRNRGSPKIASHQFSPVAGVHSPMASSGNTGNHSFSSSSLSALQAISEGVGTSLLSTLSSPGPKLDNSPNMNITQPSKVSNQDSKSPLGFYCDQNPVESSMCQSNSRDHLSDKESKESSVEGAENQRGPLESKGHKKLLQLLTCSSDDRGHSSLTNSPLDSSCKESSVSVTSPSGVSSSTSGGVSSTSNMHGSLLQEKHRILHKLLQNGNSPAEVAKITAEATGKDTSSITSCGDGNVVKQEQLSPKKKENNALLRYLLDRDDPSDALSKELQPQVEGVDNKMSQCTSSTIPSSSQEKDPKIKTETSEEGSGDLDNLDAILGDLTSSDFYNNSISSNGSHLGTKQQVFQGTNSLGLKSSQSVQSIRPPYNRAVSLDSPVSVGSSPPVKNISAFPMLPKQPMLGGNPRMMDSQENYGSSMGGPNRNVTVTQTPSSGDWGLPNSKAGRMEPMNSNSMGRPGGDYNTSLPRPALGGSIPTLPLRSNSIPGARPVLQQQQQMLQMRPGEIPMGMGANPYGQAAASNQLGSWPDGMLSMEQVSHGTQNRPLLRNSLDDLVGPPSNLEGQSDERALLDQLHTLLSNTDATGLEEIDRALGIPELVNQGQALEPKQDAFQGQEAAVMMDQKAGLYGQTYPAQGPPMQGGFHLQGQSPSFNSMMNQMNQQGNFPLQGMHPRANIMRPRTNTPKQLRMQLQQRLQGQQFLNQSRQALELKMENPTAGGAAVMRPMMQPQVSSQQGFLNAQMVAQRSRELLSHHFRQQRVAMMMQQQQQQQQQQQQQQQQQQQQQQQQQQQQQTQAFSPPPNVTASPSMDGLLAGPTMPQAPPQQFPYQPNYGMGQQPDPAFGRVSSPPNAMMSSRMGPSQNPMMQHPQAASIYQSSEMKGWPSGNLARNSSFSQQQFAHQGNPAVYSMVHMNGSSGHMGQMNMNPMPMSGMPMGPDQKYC
# Chain of Peroxisome proliferator-activated receptor gamma/Nuclear receptor coactivator 2 (P37231 whole entry): as the sequence (P37231 whole entry) above
# Chain of Peroxisome proliferator-activated receptor gamma/Nuclear receptor coactivator 2 (Q15596 whole entry, further chain): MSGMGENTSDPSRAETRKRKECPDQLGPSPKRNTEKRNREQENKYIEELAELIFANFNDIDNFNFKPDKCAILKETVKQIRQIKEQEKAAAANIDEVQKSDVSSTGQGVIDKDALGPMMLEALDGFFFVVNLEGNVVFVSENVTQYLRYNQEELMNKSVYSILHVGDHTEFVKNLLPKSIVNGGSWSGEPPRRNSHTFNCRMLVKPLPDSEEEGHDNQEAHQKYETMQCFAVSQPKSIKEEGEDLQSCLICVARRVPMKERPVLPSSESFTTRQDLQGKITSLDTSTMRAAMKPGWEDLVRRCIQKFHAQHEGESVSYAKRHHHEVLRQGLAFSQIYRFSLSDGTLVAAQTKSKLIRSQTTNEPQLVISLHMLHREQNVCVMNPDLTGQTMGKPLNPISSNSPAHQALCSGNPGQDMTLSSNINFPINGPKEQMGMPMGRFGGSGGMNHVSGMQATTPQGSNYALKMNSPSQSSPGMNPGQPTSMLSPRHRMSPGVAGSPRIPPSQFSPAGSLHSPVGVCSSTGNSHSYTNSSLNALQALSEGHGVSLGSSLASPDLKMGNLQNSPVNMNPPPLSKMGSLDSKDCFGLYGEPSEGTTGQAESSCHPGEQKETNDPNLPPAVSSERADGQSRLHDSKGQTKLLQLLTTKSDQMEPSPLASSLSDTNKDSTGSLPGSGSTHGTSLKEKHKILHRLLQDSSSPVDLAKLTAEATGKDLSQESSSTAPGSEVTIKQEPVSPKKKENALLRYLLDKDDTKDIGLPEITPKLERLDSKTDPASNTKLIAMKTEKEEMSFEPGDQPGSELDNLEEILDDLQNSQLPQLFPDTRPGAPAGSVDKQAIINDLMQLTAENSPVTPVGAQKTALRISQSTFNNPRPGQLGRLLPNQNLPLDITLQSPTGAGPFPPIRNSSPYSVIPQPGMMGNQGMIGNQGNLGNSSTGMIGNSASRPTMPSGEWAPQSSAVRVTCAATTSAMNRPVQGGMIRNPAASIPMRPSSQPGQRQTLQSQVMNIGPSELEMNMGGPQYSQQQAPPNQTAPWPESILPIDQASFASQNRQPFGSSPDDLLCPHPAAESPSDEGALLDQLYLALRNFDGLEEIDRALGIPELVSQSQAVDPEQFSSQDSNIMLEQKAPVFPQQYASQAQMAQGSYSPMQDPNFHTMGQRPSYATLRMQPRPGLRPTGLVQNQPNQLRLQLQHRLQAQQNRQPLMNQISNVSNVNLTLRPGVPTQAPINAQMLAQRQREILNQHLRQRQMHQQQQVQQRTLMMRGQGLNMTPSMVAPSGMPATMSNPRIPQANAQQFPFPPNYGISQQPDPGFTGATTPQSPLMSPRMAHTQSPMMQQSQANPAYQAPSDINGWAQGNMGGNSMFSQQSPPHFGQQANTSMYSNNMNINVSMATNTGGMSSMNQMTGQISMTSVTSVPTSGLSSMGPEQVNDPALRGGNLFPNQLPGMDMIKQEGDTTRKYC
# Chain of Genome polyprotein (P29990 2492-3391 limits assumed): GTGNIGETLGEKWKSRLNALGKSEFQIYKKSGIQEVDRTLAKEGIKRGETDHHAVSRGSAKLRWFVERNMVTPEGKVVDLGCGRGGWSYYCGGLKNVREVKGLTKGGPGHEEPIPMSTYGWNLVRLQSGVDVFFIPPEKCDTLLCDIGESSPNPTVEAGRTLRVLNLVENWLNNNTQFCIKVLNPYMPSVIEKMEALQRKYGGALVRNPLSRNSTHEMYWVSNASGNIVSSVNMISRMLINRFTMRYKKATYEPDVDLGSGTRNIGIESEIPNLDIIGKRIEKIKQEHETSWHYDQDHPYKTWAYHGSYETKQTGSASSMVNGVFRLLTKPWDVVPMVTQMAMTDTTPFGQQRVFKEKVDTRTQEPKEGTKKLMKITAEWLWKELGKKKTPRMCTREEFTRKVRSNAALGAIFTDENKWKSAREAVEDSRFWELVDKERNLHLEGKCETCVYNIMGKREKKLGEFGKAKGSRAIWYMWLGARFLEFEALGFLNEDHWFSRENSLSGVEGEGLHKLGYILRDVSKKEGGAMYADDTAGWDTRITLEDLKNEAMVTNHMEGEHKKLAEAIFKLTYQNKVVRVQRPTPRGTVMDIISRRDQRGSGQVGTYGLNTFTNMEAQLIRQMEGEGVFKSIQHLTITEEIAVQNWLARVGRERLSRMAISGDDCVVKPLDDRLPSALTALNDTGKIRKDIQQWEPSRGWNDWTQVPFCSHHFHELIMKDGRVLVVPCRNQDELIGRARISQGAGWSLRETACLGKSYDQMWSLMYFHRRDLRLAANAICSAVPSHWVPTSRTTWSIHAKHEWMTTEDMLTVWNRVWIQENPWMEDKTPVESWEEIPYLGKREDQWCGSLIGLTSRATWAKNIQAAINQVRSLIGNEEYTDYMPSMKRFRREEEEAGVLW
smiles,measurement,setting,value
CC(=O)Nc1ccc(OCC(O)CNC2CCCC2)cc1 (centres undefined),CC50,[1],> 40 µM (active)
O=C(O)[C@H](Cc1ccccc1)N1C(=O)c2c(Cl)c(Cl)c(Cl)c(Cl)c2C1=O,IC50,Genome polyprotein,23.9 µM (active)
Cc1cccc(-n2c(-c3cccs3)nc3ccccc3c2=O)c1,IC50,Cysteine protease ATG4B,10 µM (active)
same,IC50,Phospholipase A2,7.49 µM (active)
COc1ccc(-c2cc(-c3cccs3)c(C#N)c(SCC(=O)NCc3ccccc3OC)n2)cc1,EC50,[2],8.22 µM (active)
same,EC50,[3],10.3 µM (not active)
same,EC50,[4],13 µM (not active)
Oc1ccc(C2=NN(c3ccccc3)C(c3ccc(F)cc3)C2)cc1 (centres undefined),EC50,[5],> 195 µM (not active)
same,AC50,[6],4.34 µM (active)
same,AC50,[7],2.97 µM (active)
O=c1c2ccccc2nc(-c2ccc(-c3ccccc3)cc2)n1-c1ccncc1,EC50,[8],398 nM (active)
same,EC50,[9],> 60 µM (not active)
same,AC50,[6],2.73 µM (active)
Cc1nn(-c2ccccn2)c2c1-c1nc(N3CCOCC3)ncc1CC2,EC50,[2],> 79.4 µM (not active)
same,EC50,[3],> 79.4 µM (not active)
same,EC50,[4],> 79.4 µM (not active)
COc1ccc(NC(=O)CC2Nc3cccc4cccc(c34)NC2=O)cc1 (centres undefined),CC50,[1],> 40 µM (active)
CC(C)(C)C(O)C(Cc1ccccc1Cl)n1cncn1 (centres undefined),AC50,[6],< 0.195 µM (active)
CN1C(=O)C(N=Nc2ccccc2C(=O)O)N(C)C1=S (centres undefined),IC50,Cysteine protease ATG4B,16.1 µM (active)
same,IC50,Phospholipase A2,10.3 µM (active)
CC(=O)OCC1OC(NC(=O)N(CCCl)N=O)C(OC(C)=O)C(OC(C)=O)C1OC(C)=O (centres undefined),GI50,P388,26700 nM (inactive)
same,GI50,P388/ADR,44900 nM (inactive)
same,GI50,SN12K1,> 100 µM (inactive)
CN1CCN(c2ncnc3ccc(Br)cc23)CC1,IC50,HEK293 [10],4.83 µM (active)
same,IC50,HEK293 [11],> 20 µM (inactive)
same,EC50,HEK293 [12],17.8 µM (active)
same,IC50,HEK293 [13],6.08 µM (active)
O=C(CSc1ncnc2c1nnn2Cc1ccccc1F)N1CCN(c2ccccc2)CC1,AC50,[14],3.65 µM (active)
same,EC50,[2],> 79.4 µM (not active)
same,EC50,[3],> 79.4 µM (not active)
same,EC50,Protein RecA,5.75 µM (active)
same,EC50,[4],> 79.4 µM (not active)
CCCC#Cc1ccc2c(c1)O[C@H](CN(C)Cc1ccccc1)[C@@H](C)CN([C@H](C)CO)S2(=O)=O,AC50,Paired box protein Pax-8,16.2 µM (active)
same,AC50,[15],58.3 µM (active)
CC(OC(=O)c1cc2sccc2n1C)C(=O)NCc1cccs1 (centres undefined),EC50,[2],> 79.4 µM (not active)
same,EC50,[3],> 79.4 µM (not active)
same,EC50,[4],> 79.4 µM (not active)
COc1cc(OC)cc(-c2nc3ccccc3c(=O)n2OC(=O)c2ccc(C)c(C)c2)c1,IC50,Cysteine protease ATG4B,4.38 µM (active)
same,IC50,Phospholipase A2,5.9 µM (active)
COc1ccc(C2COc3c(ccc(O)c3C)C2)cc1OC (centres undefined),GI50,P388,40900 nM (inactive)
same,GI50,P388/ADR,35900 nM (inactive)
same,GI50,SN12K1,45.8 µM (inactive)
CC(=O)OC(C)(C)/C=C/C(=O)[C@](C)(O)[C@H]1[C@H](O)C[C@@]2(C)[C@@H]3CC=C4[C@@H](C=C(O)C(=O)C4(C)C)[C@]3(C)C(=O)C[C@]12C [CUCURBITACIN E],GI50,P388,37.9 nM (active)
same,GI50,P388/ADR,37.5 nM (active)
same,GI50,SN12K1,0.0336 µM (active)
CCCn1c(NC(=O)c2ccco2)nc2ccccc21,CC50,[1],> 40 µM (active)
CCOc1cccc2cc(C(=O)Nc3cc(C)on3)c(=O)oc12,EC50,[2],22.4 µM (not active)
same,EC50,[3],24.6 µM (not active)
same,EC50,[4],30.1 µM (not active)
O=C1C=CN(C2OC(CO)C(O)C2O)C(=O)C1 (centres undefined),GI50,P388,718 nM (active)
same,GI50,P388/ADR,843 nM (active)
CN(C)CCNC(=O)c1cccc2ccc(-c3ccc(Br)cc3)nc12,GI50,P388,374 nM (active)
same,GI50,P388/ADR,512 nM (active)
same,GI50,SN12K1,0.895 µM (active)
